Test results: PubChem BioAssay AID248 (DTP/NCI, 2004)
Values joined by “and” are separate entries in the source; they are usually repeats but may differ in a detail not shown here. Equal entries are not always repeated. Toxic doses and inconclusive results are not listed.

Tested on: L1210 leukemia ip in BDF1 mice, survival T/C
Assay: NCI In Vivo Anticancer Drug Screen. Data for tumor model L1210 Leukemia (intraperitoneal) in B6D2F1 (BDF1) mice
Settings: endpoint: mean survival time, higher = longer survival
In short: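 Mice bearing the transplanted tumor received compound or vehicle. Survival of the treated group was divided by that of the vehicle-treated control group to give the ratio.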

[1] = dose: 100.0 mg/kg/injection, schedule: Q01DX009 (ip), vehicle: Klucel (hydroxypropylcellulose) (HPC)
[2] = dose: 50.0 mg/kg/injection, schedule: Q01DX009 (ip), vehicle: saline
[3] = dose: 100.0 mg/kg/injection, schedule: Q01DX009 (ip), vehicle: saline
[4] = dose: 100.0 mg/kg/injection, schedule: Q04DX003 (ip), vehicle: saline
[5] = dose: 200.0 mg/kg/injection, schedule: Q01DX009 (ip), vehicle: saline
[6] = dose: 200.0 mg/kg/injection, schedule: Q04DX003 (ip), vehicle: saline
[7] = dose: 100.0 mg/kg/injection, schedule: Q04DX003 (ip), vehicle: saline with Tween-80
[8] = dose: 200.0 mg/kg/injection, schedule: Q04DX003 (ip), vehicle: saline with Tween-80
[9] = dose: 400.0 mg/kg/injection, schedule: Q04DX003 (ip), vehicle: saline with Tween-80
[10] = dose: 400.0 mg/kg/injection, schedule: Q04DX003 (ip), vehicle: saline
[11] = dose: 50.0 mg/kg/injection, schedule: Q01DX009 (ip), vehicle: saline with Tween-80
[12] = dose: 100.0 mg/kg/injection, schedule: Q01DX009 (ip), vehicle: saline with Tween-80
[13] = dose: 200.0 mg/kg/injection, schedule: Q01DX009 (ip), vehicle: saline with Tween-80
[14] = dose: 100.0 mg/kg/injection, schedule: Q04DX002 (ip), vehicle: Klucel (hydroxypropylcellulose) (HPC)
[15] = dose: 200.0 mg/kg/injection, schedule: Q04DX002 (ip), vehicle: Klucel (hydroxypropylcellulose) (HPC)
[16] = dose: 400.0 mg/kg/injection, schedule: Q04DX002 (ip), vehicle: Klucel (hydroxypropylcellulose) (HPC)

CCCCCCOP(=O)(CCCCCC)OCCCCCC
T/C (dose: 13.3 mg/kg/injection, schedule: Q01DX Z (ip), vehicle: methylcellulose (MC)): 96 % of control | T/C (dose: 20.0 mg/kg/injection, schedule: Q01DX Z (ip), vehicle: methylcellulose (MC)): 102 % of control | T/C (dose: 25.0 mg/kg/injection, schedule: Q01DX009 (ip), vehicle: Klucel (hydroxypropylcellulose) (HPC)): 93 % of control | T/C (dose: 25.0 mg/kg/injection, schedule: Q04DX003 (ip), vehicle: Klucel (hydroxypropylcellulose) (HPC)): 94 % of control | T/C (dose: 30.0 mg/kg/injection, schedule: Q01DX Z (ip), vehicle: methylcellulose (MC)): 95 % of control | T/C (dose: 50.0 mg/kg/injection, schedule: Q01DX009 (ip), vehicle: Klucel (hydroxypropylcellulose) (HPC)): 101 % of control | T/C (dose: 50.0 mg/kg/injection, schedule: Q04DX003 (ip), vehicle: Klucel (hydroxypropylcellulose) (HPC)): 89 % of control | T/C [1]: 98 % of control | T/C (dose: 100.0 mg/kg/injection, schedule: Q04DX003 (ip), vehicle: Klucel (hydroxypropylcellulose) (HPC)): 103 % of control

CCS(=O)c1c(Cl)c(Cl)c(Cl)c(Cl)c1Cl (stereo not given)
T/C [1]: 102 % of control | T/C (dose: 200.0 mg/kg/injection, schedule: Q01DX009 (ip), vehicle: Klucel (hydroxypropylcellulose) (HPC)): 108 % of control | T/C (dose: 400.0 mg/kg/injection, schedule: Q01DX009 (ip), vehicle: Klucel (hydroxypropylcellulose) (HPC)): 95 % of control

NC(N)=N/N=C(\c1ccc(F)cc1)c1ccc(C(F)(F)F)cc1
T/C (dose: 9.5 mg/kg/injection, schedule: Q01DX001 (ip), vehicle: other): 92 % of control | T/C (dose: 19.0 mg/kg/injection, schedule: Q01DX001 (ip), vehicle: other): 97 % of control | T/C (dose: 38.0 mg/kg/injection, schedule: Q01DX001 (ip), vehicle: other): 98 % of control

COc1cc(N2CCOCC2)ccc1[N+](=O)[O-]
T/C [2]: 105 % of control | T/C [3]: 103 % of control | T/C [4]: 102 % of control | T/C [5]: 105 % of control | T/C [6]: 103 % of control

CCOC(=O)C(C)(C)CN(CC(C)(C)C(=O)OCC)c1ccccc1
T/C [7]: 106 % of control | T/C [8]: 106 % of control | T/C [9]: 104 % of control

COC(=O)c1ccc(S(=O)(=O)O)cc1[N+](=O)[O-]
T/C (dose: 100.0 mg/kg/injection, schedule: Q04DX002 (ip), vehicle: saline): 100 % of control | T/C (dose: 200.0 mg/kg/injection, schedule: Q04DX002 (ip), vehicle: saline): 88 % of control | T/C (dose: 400.0 mg/kg/injection, schedule: Q04DX002 (ip), vehicle: saline): 96 % of control

Cc1nnc(NS(=O)(=O)c2ccc(N=Nc3ccc(O)c4ncccc34)cc2)s1
T/C (dose: 100.0 mg/kg/injection, schedule: Q01DX001 (ip), vehicle: saline): 105 % of control | T/C (dose: 200.0 mg/kg/injection, schedule: Q01DX001 (ip), vehicle: saline): 102 % of control | T/C (dose: 400.0 mg/kg/injection, schedule: Q01DX001 (ip), vehicle: saline): 96 % of control

CSc1nc(O)cc(=O)n1C
T/C (dose: 100.0 mg/kg/injection, schedule: Q01DX Z (ip), vehicle: methylcellulose (MC)): 95 % of control | T/C (dose: 200.0 mg/kg/injection, schedule: Q01DX Z (ip), vehicle: methylcellulose (MC)): 101 % of control

CC1CNC(=S)O1 (stereo not given)
T/C (dose: 50.0 mg/kg/injection, schedule: Q04DX003 (ip), vehicle: saline): 96 % of control | T/C [4]: 98 % of control | T/C [6]: 101 % of control | T/C [10]: 108 % of control

CN=C(N)Nc1ccccc1
T/C [11]: 97 % of control | T/C [2]: 101 % of control | T/C [12]: 90 % of control | T/C [3]: 101 % of control | T/C [13]: 97 % of control | T/C [5]: 101 % of control

CC1CC(O)C([N+](=O)[O-])C(O)C1 (stereo not given)
T/C (dose: 12.5 mg/kg/injection, schedule: Q01DX009 (ip), vehicle: saline): 102 % of control

NCC(Cc1ccc(O)cc1)P(=O)(O)O (stereo not given)
T/C [4]: 100 % of control | T/C [6]: 95 % of control | T/C [10]: 92 % of control

CC12CC3(C)CC(Cl)(C1)CC(Cl)(C2)C3
T/C [14]: 90 % of control | T/C [15]: 102 % of control | T/C [16]: 119 % of control

CN(C)N=Nc1ccc([N+](=O)[O-])cc1C(N)=O
T/C (dose: 100.0 mg/kg/injection, schedule: Q01DX001 (ip), vehicle: saline with Tween-80): 117 % of control | T/C (dose: 100.0 mg/kg/injection, schedule: Q01DX007 (ip), vehicle: saline with Tween-80): 124 % of control | T/C [7]: 108 % of control | T/C (dose: 180.0 mg/kg/injection, schedule: Q01DX009 (ip), vehicle: saline with Tween-80): 170 % of control | T/C (dose: 200.0 mg/kg/injection, schedule: Q01DX001 (ip), vehicle: saline with Tween-80): 104 % of control | T/C [8]: 105 % of control | T/C (dose: 268.0 mg/kg/injection, schedule: Q01DX009 (ip), vehicle: saline with Tween-80): 167 % of control | T/C (dose: 400.0 mg/kg/injection, schedule: Q01DX001 (ip), vehicle: saline with Tween-80): 108 % of control | T/C (dose: 400.0 mg/kg/injection, schedule: Q01DX007 (ip), vehicle: saline with Tween-80): 154 % of control | T/C (dose: 400.0 mg/kg/injection, schedule: Q01DX009 (ip), vehicle: saline with Tween-80): 122 % of control | T/C [9]: 117 % of control | T/C (dose: 600.0 mg/kg/injection, schedule: Q01DX009 (ip), vehicle: saline with Tween-80): 90 % of control

CCOC(=O)Nc1cc(Cl)c([N+](=O)[O-])c(NC(=O)OCC)n1
T/C (dose: 100.0 mg/kg/injection, schedule: Q01DX001 (ip), vehicle: other): 102 % of control | T/C (dose: 200.0 mg/kg/injection, schedule: Q01DX001 (ip), vehicle: other): 91 % of control

[O-][n+]1ccccc1Cc1ccccc1
T/C [11]: 90 % of control | T/C [12]: 90 % of control | T/C (dose: 100.0 mg/kg/injection, schedule: Q04DX002 (ip), vehicle: saline with Tween-80): 97 % of control | T/C [13]: 90 % of control | T/C (dose: 200.0 mg/kg/injection, schedule: Q04DX002 (ip), vehicle: saline with Tween-80): 101 % of control | T/C (dose: 400.0 mg/kg/injection, schedule: Q04DX002 (ip), vehicle: saline with Tween-80): 101 % of control

CCCCNC(=O)C(=O)NCCCC
T/C (dose: 100.0 mg/kg/injection, schedule: Q01DX001 (ip), vehicle: Klucel (hydroxypropylcellulose) (HPC)): 108 % of control | T/C (dose: 100.0 mg/kg/injection, schedule: Q01DX009 (ip), vehicle: other): 90 % of control | T/C [14]: 96 % of control | T/C (dose: 200.0 mg/kg/injection, schedule: Q01DX001 (ip), vehicle: Klucel (hydroxypropylcellulose) (HPC)): 103 % of control | T/C (dose: 200.0 mg/kg/injection, schedule: Q01DX009 (ip), vehicle: other): 94 % of control | T/C [15]: 96 % of control | T/C (dose: 400.0 mg/kg/injection, schedule: Q01DX001 (ip), vehicle: Klucel (hydroxypropylcellulose) (HPC)): 97 % of control | T/C (dose: 400.0 mg/kg/injection, schedule: Q01DX009 (ip), vehicle: other): 95 % of control | T/C [16]: 103 % of control
